Measurements as given in US20250376498A1, “FUSION PROTEINS COMPRISING AN IMPROVED GLP-1 RECEPTOR AGONIST AND USES THEREOF” (Guangzhou Innogen Pharmaceutical Group Co., Ltd., priority 2022, published 2025).
Entries after “also recorded” stand apart in the source; their conditions may differ.

How the values were obtained:
HMC3 microglial cells = assay: Inflammatory factor mRNA in HMC3 microglial cells induced by Aβ1-42 oligomers (qPCR); assay type: cell-based, human; conditions: for mRNA expression of IL-6 / mRNA expression of TNF-α: 10 μM Aβ1-42 oligomers, 48 hours, YN-011 100 nM and 500 nM; for mRNA expression of IL-6: GABA 10 μM and 100 μM (so in the source); for mRNA expression of TNF-α: GABA 100 μM, combination 100 μM GABA and 100 nM YN-011; for inflammatory cytokine mRNA expression: Aβ1-42 oligomers (figure legends)
Description: Under sterile conditions, dissolve the synthesized Aβ1-42 peptide (AnaSpec #AS-20276) in hexafluoroisopropanol (Mecklin #H811026) to obtain a 1 mM solution. Divide the solution into 1.5 ml sterile centrifuge tubes and evaporate the hexafluoroisopropanol in a vacuum evaporator. The dried peptide forms a film in the tubes and is stored at −20° C. for later use. Freshly prepare Aβ1-42 oligomers from the dried peptide film as follows: dissolve the dried peptide film in anhydrous DMSO to obtain a 5 mM solution, then dilute with cold cell culture basal medium to obtain a 100 µM stock solution. After incubating at 4° C. for 24 hours, use the stock solution for cell treatment.
Seed HMC3 human microglial cells into a 24-well plate. After overnight incubation at 37° C. with 5% CO2, treat the cells in each well with 10 μM Aβ1-42 oligomers alone or co-treated with 1, 10, or 100 μM GABA for 48 hours. Each drug treatment is performed in three replicate wells. After 48 hours of treatment, isolate total RNA from the cells in each well using 1 ml of Trizol (Invitrogen #15596026) following the manufacturer's instructions. Dissolve the RNA pellet in 20 μl of DEPC-treated water. Measure the RNA concentration and purity using a NanoDrop 2000. Convert RNA into cDNA using a reverse transcription kit (Yeasen #11141ES60). Prepare the PCR reaction as follows: 5 μl of PCR mix (Yeasen #10108ES03), 0.2 μl of forward primer, 0.2 μl of reverse primer, 1 μl of cDNA, and 3.6 μl of water. Perform qPCR on an Applied Biosystems 7500 real-time PCR system using the following thermal program: initial denaturation at 95° C. for 3 minutes, followed by 40 cycles of denaturation at 95° C. for 30 seconds, annealing at 60° C. for 30 seconds, and extension at 72° C. for 1 minute. Compare the relative mRNA expression of TNF-α and IL-6 between treated and untreated cells using the ΔΔCt method, normalized to the expression of the housekeeping gene RPLP0.
(§1) Please refer to section 8.17 for the experimental procedure, but the drug treatment in this experiment is different from that in section 8.17. In this experiment, the drug treatment is as follows: treat the cells in each well with 10 μM Aβ1-42 oligomers alone or co-treated with 10, 100, or 500 nM YN-011 for 48 hours. Each drug treatment is performed in three replicate wells.
as §1, with “µM” for “μM”, “100 μM GABA and/or 100” for “10, 100, or 500”

SH-SY5Y neuronal cells = assay: Apoptosis in TNF-α-induced SH-SY5Y cells (cleaved-caspase 3 immunofluorescence); assay type: cell-based; conditions: 60 ng/ml TNF-α, 48 hours; YN-011 10, 100, 500 nM; GABA 1, 10, 100 μM; combination 100 μM GABA + 100 nM YN-011
Description: The experimental procedure is as follows: • 1) Digest the SH-SY5Y neuronal cells in a 10 cm culture dish using 0.25% trypsin to prepare a single-cell suspension. Seed the single-cell suspension into a 24-well plate, placing a sterile coverslip in each well. • 2) Place the culture plate in a CO2 incubator and pre-culture overnight at 37° C. with 5% CO2 to allow the cells to adhere. • 3) Using medium containing 5% FBS, treat the cells in each well with 60 ng/ml TNF-α alone or co-treated with 10, 100, or 500 nM YN-011 at 37° C. for 48 hours. […]

`NCCCC(=O)O` [GABA, γ-aminobutyric acid] was tested, and the “mRNA expression of IL-6” value (HMC3 microglial cells) was “significantly reduce”, the “mRNA expression of TNF-α” value (HMC3 microglial cells) was “significantly reduces” and the “inflammatory cytokine mRNA expression” value (HMC3 microglial cells) was “reduction of inflammatory cytokine mRNA expression”. The “apoptosis in TNF-α-induced neuronal cells (cleaved-caspase 3 positive cells)” value (SH-SY5Y neuronal cells) was “reduces apoptosis; also recorded: reduction of apoptosis”.

B1: YN-011: GLP-1 fusion protein of SEQ ID NO: 7: GLP-1 (A8G, G22E, R36G), linker peptide and IgG2/Fc domain (C222S, A330S, P331S) (protein)
chain: HGEGTFTSDVSSYLEEQAAKEFIAWLVKGGGSSGAPPPSGGGGSERKSCVECPPCPAPPVAGPSVFLFPPKPKDTLMISRTPEVTCVVVDVSHEDPEVQFNWYVDGVEVHNAKTKPREEQFNSTFRVVSVLTVVHQDWLNGKEYKCKVSNKGLPSSIEKTISKTKGQPREPQVYTLPPSREEMTKNQVSLTCLVKGFYPSDIAVEWESNGQPENNYKTTPPMLDSDGSFFLYSKLTVDKSRWQQGNVFSCSVMHEALHNHYTQKSLSLSPG
In the case of B1, the “mRNA expression of IL-6” value (HMC3 microglial cells) is reported as “significantly reduce”, the “mRNA expression of TNF-α” value (HMC3 microglial cells) is reported as “significantly reduce” and the “inflammatory cytokine mRNA expression” value (HMC3 microglial cells) is reported as “reduction of inflammatory cytokine mRNA expression”. The “apoptosis in TNF-α-induced neuronal cells (cleaved-caspase 3 positive cells)” value (SH-SY5Y neuronal cells) was “significantly reduces apoptosis; also recorded: reduction of apoptosis”.
